What was measured:
Type in all cases: cell-based
[1] = system: Actinobacillus actinomycetemcomitans; experiment: photodynamic sterilization with periodontal light guide needle device (Embodiment 4); settings: red light beam 630 nm, irradiation 30 s, tip of periodontal light guide needle
From the text: The device of Embodiment 4 and photosensitizer toluidine blue O are used in cooperation to carry out photodynamic sterilization of Actinobacillus actinomycetemcomitans, and a red light beam with a wavelength of 630 nm is selected to irradiate for 30 s.

[2] = system: Enterococcus faecalis; experiment: photodynamic sterilization experiment with constant-current source device (Embodiment 12); settings: red light 630 nm and blue light 430 nm, irradiation 30 seconds, device of Embodiment 12
From the text: (§1) The device of Embodiment 12 and photosensitizer toluidine blue O are used in cooperation to carry out the photodynamic sterilization experiment on Porphyromonas gingivalis and Enterococcus faecalis. A red light beam with a wavelength of 630 nm and a blue light beam with a wavelength of 430 nm are used to irradiate for 30 seconds.

[3] = system: Porphyromonas gingivalis; experiment: as above; settings: red light 630 nm and blue light 430 nm, irradiation 30 seconds, device of Embodiment 12
From the text: as §1

[4] = system: Enterococcus faecalis ATCC2921; experiment: photodynamic sterilization experiment with root canal light guide needle device; settings: red-light beam 630 nm, irradiation 30 s, tip of root canal light guide needle
Method: The photodynamic sterilization experiment on Enterococcus faecalis ATCC2921 is carried out using the device provided by the present disclosure and the photosensitizer toluidine blue O, and a red-light beam with a wavelength of 630 nm is selected to irradiate for 30 s.

[5] = system: Porphyromonas gingivalis; experiment: photodynamic sterilization with pure flat light guide needle device (Embodiment 8); settings: red light beam 630 nm, irradiation 30 s, tail end of pure flat light guide needle
From the text: The device of Embodiment 8 and photosensitizer toluidine blue O are used in cooperation to carry out photodynamic sterilization of Porphyromonas gingivalis, and a red light beam with a wavelength of 630 nm is selected to irradiate for 30 s.

Measured: sterilization efficiency

Cc1cc2nc3ccc(=[N+](C)C)cc-3sc2cc1N [toluidine blue O]
99%: [1] | [2] | [3] | [4] | [5]
